Assay results published in PubChem BioAssay AID248 (DTP/NCI, 2004).
Several values for one entry are separate records, joined by “and”; a condition that tells them apart may be missing. Equal values may be shown once. Inconclusive results and toxic doses are left out. Cut-off read from the data, not from the text of the source: active = T/C of 150% or more; inactive = T/C below 125%.

Tested on: L1210 leukemia ip in BDF1 mice, survival T/C
Experiment: NCI In Vivo Anticancer Drug Screen. Data for tumor model L1210 Leukemia (intraperitoneal) in B6D2F1 (BDF1) mice
Details: endpoint: mean survival time, higher = longer survival
In short: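 Read-out is survival time, reported as the treated-group measurement over the vehicle-control measurement.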

[1] = dose: 100.0 mg/kg/injection, schedule: Q01DX009 (ip), vehicle: Klucel (hydroxypropylcellulose) (HPC)
[2] = dose: 100.0 mg/kg/injection, schedule: Q04DX003 (ip), vehicle: Klucel (hydroxypropylcellulose) (HPC)
[3] = dose: 200.0 mg/kg/injection, schedule: Q01DX009 (ip), vehicle: Klucel (hydroxypropylcellulose) (HPC)
[4] = dose: 200.0 mg/kg/injection, schedule: Q04DX003 (ip), vehicle: Klucel (hydroxypropylcellulose) (HPC)
[5] = dose: 400.0 mg/kg/injection, schedule: Q01DX009 (ip), vehicle: Klucel (hydroxypropylcellulose) (HPC)
[6] = dose: 400.0 mg/kg/injection, schedule: Q04DX003 (ip), vehicle: Klucel (hydroxypropylcellulose) (HPC)
[7] = dose: 100.0 mg/kg/injection, schedule: Q04DX003 (ip), vehicle: saline with Tween-80
[8] = dose: 200.0 mg/kg/injection, schedule: Q04DX003 (ip), vehicle: saline with Tween-80
[9] = dose: 400.0 mg/kg/injection, schedule: Q04DX003 (ip), vehicle: saline with Tween-80
[10] = dose: 100.0 mg/kg/injection, schedule: Q04DX002 (ip), vehicle: Klucel (hydroxypropylcellulose) (HPC)
[11] = dose: 200.0 mg/kg/injection, schedule: Q04DX002 (ip), vehicle: Klucel (hydroxypropylcellulose) (HPC)
[12] = dose: 400.0 mg/kg/injection, schedule: Q04DX002 (ip), vehicle: Klucel (hydroxypropylcellulose) (HPC)

Measured: T/C

O=C(NCCBr)Nc1cccc2c1Cc1ccccc1-2
inactive: [1] 105 % of control | [2] 95 % of control | [3] 96 % of control | [4] 95 % of control | [5] 94 % of control | [6] 97 % of control

CCOC(=O)c1cc(N)c[nH]1
inactive: dose: 50.0 mg/kg/injection, schedule: Q01DX009 (ip), vehicle: saline 109 % of control | dose: 100.0 mg/kg/injection, schedule: Q01DX009 (ip), vehicle: saline 96 % of control | dose: 100.0 mg/kg/injection, schedule: Q04DX003 (ip), vehicle: saline 89 % of control | dose: 200.0 mg/kg/injection, schedule: Q01DX009 (ip), vehicle: saline 96 % of control | dose: 200.0 mg/kg/injection, schedule: Q04DX003 (ip), vehicle: saline 94 % of control

O=C([S][Ge]([c]1ccccc1)([c]1ccccc1)[c]1ccccc1)c1ccc([N+](=O)[O-])cc1
inactive: [1] 114 % of control | [3] 92 % of control

O=C(Oc1ccc(Cl)cc1)c1ccccc1
inactive: [1] 95 % of control | [2] 103 % of control | [3] 101 % of control | [4] 105 % of control | [5] 101 % of control | [6] 92 % of control

C[C@]12CC[C@H]3[C@@H](CC[C@]4(O)C[C@@H](O)CC[C@]34CO)[C@@]1(O)CC[C@@H]2C1=CC(=O)OC1
inactive: dose: 50.0 mg/kg/injection, schedule: Q01DX001 (ip), vehicle: saline 106 % of control | dose: 100.0 mg/kg/injection, schedule: Q01DX001 (ip), vehicle: saline 100 % of control | dose: 200.0 mg/kg/injection, schedule: Q01DX001 (ip), vehicle: saline 100 % of control

C=C(Cl)CN(CCCC(=O)O)c1ccccc1
inactive: dose: 100.0 mg/kg/injection, schedule: Q01DX009 (ip), vehicle: other 108 % of control | dose: 100.0 mg/kg/injection, schedule: Q04DX003 (ip), vehicle: other 98 % of control | dose: 200.0 mg/kg/injection, schedule: Q01DX009 (ip), vehicle: other 107 % of control | dose: 200.0 mg/kg/injection, schedule: Q04DX003 (ip), vehicle: other 106 % of control | dose: 400.0 mg/kg/injection, schedule: Q01DX009 (ip), vehicle: other 102 % of control | dose: 400.0 mg/kg/injection, schedule: Q04DX003 (ip), vehicle: other 108 % of control

N#Cc1c(F)c(F)c(C(F)(F)F)c(F)c1F
inactive: dose: 6.0 mg/kg/injection, schedule: Q01DX009 (ip), vehicle: saline with Tween-80 103 % of control | dose: 12.0 mg/kg/injection, schedule: Q01DX009 (ip), vehicle: saline with Tween-80 104 % of control | dose: 25.0 mg/kg/injection, schedule: Q01DX009 (ip), vehicle: saline with Tween-80 93 % of control | dose: 50.0 mg/kg/injection, schedule: Q01DX009 (ip), vehicle: other 103 % of control

Nc1nc(S)c(N)c(=S)[nH]1
inactive: dose: 9.5 mg/kg/injection, schedule: Q01DX001 (ip), vehicle: carboxymethylcellulose (CMC) 105 % of control | dose: 19.0 mg/kg/injection, schedule: Q01DX001 (ip), vehicle: carboxymethylcellulose (CMC) 94 % of control | dose: 38.0 mg/kg/injection, schedule: Q01DX001 (ip), vehicle: carboxymethylcellulose (CMC) 97 % of control

CC(=O)OC1COC(SC(=N)N)C(OC(C)=O)C1OC(C)=O (stereo unspecified)
inactive: dose: 75.0 mg/kg/injection, schedule: Q01DX001 (ip), vehicle: water 101 % of control and 104 % of control | dose: 150.0 mg/kg/injection, schedule: Q01DX001 (ip), vehicle: water 104 % of control and 103 % of control | dose: 300.0 mg/kg/injection, schedule: Q01DX001 (ip), vehicle: water 97 % of control and 95 % of control

CCN1/C(=C\c2ccc3cc(OC)ccc3[n+]2CC)[Se]c2ccc(OC)cc21
inactive: dose: 1.0 mg/kg/injection, schedule: Q01DX001 (ip), vehicle: other 98 % of control | dose: 2.0 mg/kg/injection, schedule: Q01DX001 (ip), vehicle: other 103 % of control | dose: 4.0 mg/kg/injection, schedule: Q01DX001 (ip), vehicle: other 103 % of control

O=C(NCCCCC(Cl)C(=O)O)c1ccccc1 (stereo unspecified)
inactive: [7] 100 % of control | [8] 100 % of control | [9] 100 % of control

CC(C)OC(=S)Nc1ccccc1
inactive: dose: 50.0 mg/kg/injection, schedule: Q01DX009 (ip), vehicle: Klucel (hydroxypropylcellulose) (HPC) 102 % of control | dose: 100.0 mg/kg/injection, schedule: Q01DX001 (ip), vehicle: gum acacia 102 % of control | [1] 107 % of control | dose: 200.0 mg/kg/injection, schedule: Q01DX001 (ip), vehicle: gum acacia 98 % of control | [3] 98 % of control | dose: 400.0 mg/kg/injection, schedule: Q01DX001 (ip), vehicle: gum acacia 95 % of control

O=C(Nc1ccc(Cl)cc1)c1cccnc1
inactive: dose: 100.0 mg/kg/injection, schedule: Q01DX009 (ip), vehicle: saline with Tween-80 95 % of control | [7] 96 % of control | dose: 200.0 mg/kg/injection, schedule: Q01DX009 (ip), vehicle: saline with Tween-80 97 % of control | [8] 98 % of control | [9] 91 % of control

CC12CC3CC(Br)(C1)CC(C#N)(C3)C2 (stereo unspecified)
inactive: dose: 6.0 mg/kg/injection, schedule: Q04DX002 (ip), vehicle: Klucel (hydroxypropylcellulose) (HPC) 109 % of control | dose: 12.0 mg/kg/injection, schedule: Q04DX002 (ip), vehicle: Klucel (hydroxypropylcellulose) (HPC) 98 % of control | dose: 25.0 mg/kg/injection, schedule: Q04DX002 (ip), vehicle: Klucel (hydroxypropylcellulose) (HPC) 94 % of control

CCCCNC(=O)Nc1ccc(Cl)cc1C(=O)c1ccccc1
inactive: [10] 105 % of control | [11] 102 % of control | [12] 94 % of control

Cc1ccc(-n2c(=O)c(N=Nc3ccc(Br)cc3)c(O)n(-c3ccccc3C)c2=S)cc1
inactive: dose: 100.0 mg/kg/injection, schedule: Q01DX001 (ip), vehicle: Klucel (hydroxypropylcellulose) (HPC) 95 % of control | dose: 200.0 mg/kg/injection, schedule: Q01DX001 (ip), vehicle: Klucel (hydroxypropylcellulose) (HPC) 88 % of control | dose: 400.0 mg/kg/injection, schedule: Q01DX001 (ip), vehicle: Klucel (hydroxypropylcellulose) (HPC) 88 % of control

CCCCNC(=O)CSc1cc(Cl)c(Cl)cc1Cl
inactive: dose: 100.0 mg/kg/injection, schedule: Q01DX001 (ip), vehicle: saline with Tween-80 91 % of control | dose: 200.0 mg/kg/injection, schedule: Q01DX001 (ip), vehicle: saline with Tween-80 91 % of control | dose: 400.0 mg/kg/injection, schedule: Q01DX001 (ip), vehicle: saline with Tween-80 95 % of control

CCCCCCCCCCCCCCCCCCNC(=O)NCc1ccncc1
inactive: [10] 94 % of control | [11] 123 % of control | [12] 87 % of control

C=CCc1ccc(OCC(=O)O)c(OC)c1
inactive: [7] 106 % of control | [8] 93 % of control | [9] 97 % of control

Cc1ccc([N+](=O)[O-])cc1NS(=O)(=O)c1cc(Cl)c(Cl)cc1Cl
inactive: [1] 95 % of control | [3] 108 % of control | [5] 90 % of control
